Results taken from ChEMBL document CHEMBL4406898, “Dual mode of binding of anti cancer drug epirubicin to G-quadruplex [d-(TTAGGGT)]4 containing human telomeric DNA sequence induces thermal stabilization” (Bioorg Med Chem, 2019).

Assays:
Tetrahymena thermophila [1] = assay: Binding affinity to Tetrahymena thermophila telomeric 7 G-quadruplex DNA assessed as binding constant Kb1 in presence of 10 mM KCl by fluorescence spectroscopy
Tetrahymena thermophila [2] = assay: Binding affinity to Tetrahymena thermophila telomeric 7 G-quadruplex DNA assessed as binding constant Kb2 in presence of 10 mM KCl by fluorescence spectroscopy

Kb (Tetrahymena thermophila [1]): 6.3 ×10⁵ /M
Kb (Tetrahymena thermophila [2]): 1.3 ×10⁵ /M
SMILES: COc1cccc2c1C(=O)c1c(O)c3c(c(O)c1C2=O)C[C@@](O)(C(C)=O)C[C@@H]3O[C@H]1C[C@H](N)[C@H](O)[C@H](C)O1
